The subject of one experiment is retinal ganglion cells. Nature of the experiment: Survival of retinal ganglion cells exposed to glutamate (NMDA neurotoxicity). The class given is cell-based, rat. Conditions: for NMDA receptor-mediated neurotoxicity / neuronal cell injury: oxidized DTT produced from reduced DTT with DTNB. How it is done: To investigate the influence of redox modulation on NMDA neurotoxicity, survival of an identified central neuron, the retinal ganglion cell, was monitored for 12-24 hr after a brief (5-10 min.) exposure to DTT. To determine the degree of killing specifically related to activation of the NMDA receptor, APV at 200 μM was added to sibling cultures. APV-preventable, glutamate-induced death was increased 70±9% with DTT treatment.
Retinal ganglion cell neurons were labeled in situ, dissociated from the retina, and cultured as follows. Retinal ganglion cells from 7- to 12-day-old Long-Evans rats were labeled and enzymatically dissociated as described by Leifer et al., Science 224: 303, 1984. Following rinse of the dissociated retinal cells with a physiological saline based on Hanks' salts (composition in mM: NaCl, 137; NaHCO3, 1; Na2HPO4, 0.34; KCl, 5,36; KH2PO4, 0.44; CaCl2, 1.25, MgSO4, 0.5; MgCl2, 0.5; N-2-hydroxyethyl-piperazine-N′-2-ethanesulfonic acid (HEPES), 5; dextrose, 22.2; Phenol Red, 0.001% v/v; adjusted to pH 7.2 with 0.3 M NaOH), the cells were mechanically dispersed and aliquoted to treatment vials. These vials contained control saline solution, or saline solution with either 0.5-2 mM DTT, or 0.5 mM DTT in the presence of 1 mM DTNB. Treatment groups with DTNB were readjusted to pH 7.2 with 0.3 M NaOH. Cells were agitated gently over a 5-10 min period. After treatment, 100 μl volumes of the cell suspension were plated onto glass coverslips coated with poly-L-lysine in 35×10 mm tissue-culture dishes containing 2 ml of culture medium. The cell culture medium was based on Eagle's minimum essential medium (MEM), modified so that it was nominally free of magnesium and contained 10 mM CaCl2 to enhance NMDA receptor-mediated neuro-toxicity. The medium was also supplemented with methylcellulose 0.7% w/v, gentamicin 1 μg/ml, dextrose 16 mM, and rat serum 5% v/v. Glutamate levels in the culture medium were monitored by HPLC analysis. Concentrations of glutamate added to the medium of each experiment to induce cell killing averaged 10 μM (day to day variability in neuronal cell death was most probably due to slight variations in the amount of endogenous glutamate or a glutamate-like substance in these cultures). The 100 μl aliquots of cell suspension diluted into the 2 ml of MEM produced a final concentration of 50 μM Mg^2+, as well as levels of DTT and DTNB at 5% of their initial treatment concentrations. The cell cultures were incubated for 12-24 hours at 37° C. in an atmosphere of 5% CO2/95% humidified air. Neuronal survival was then scored by counting retinal ganglion cells displaying uptake and cleavage of fluorescein diacetate to fluorescein, as described by Hahn et al. Proc. Nat. Acad. Sci. USA 85:6556, 1988.
Experiments were conducted in triplicate and repeated on eleven separate days. In order to compare results obtained on different days, data were normalized such that the total number of surviving neurons in a given experiment divided by the number of treatment categories (i.e., 4) equalled 100.
Retinal cells were cultured as described in Example 1. In these experiments transient exposure to the reduced form of DTT (500 μM) occurred in the presence of DTNB (1 mM).

A further experiment deals with NMDA receptor. In words: NMDA-induced responses recorded in intact chick retina (eyecup, optic nerve DC potential). The class given is cell-based. Conditions: APV 100 μM. How it is done:
Eyecups were obtained from 2-to 5-day-old chicks and continuously superfused at 20-25° C. at a rate of 8 ml/min with Tyrodes solution (130 mM NaCl, 3 mM KCl, 17 mM dextrose, 20 mM NaHCO3, 0.01% w/v phenol red; bubbled with a gas mixture of 95% O2 and 5% CO2) containing 5 mM MgCl2 to reduce synaptic activity. […] Traces were triggered by the opening of two solenoid valves that shunted approximately 200 μl of agonist (1, 1-dimethyl-4-phenyl-piperazinium iodide, DMPP or NMDA) into the perfusion line, Agonists reached the preparation approximately 7s later. […] Some experiments were performed in the presence of 10 μg/ml catalase and 1 μg/ml superoxide dismutase. Antagonists, reducing agents, or oxidizing agents were introduced directly via the perfusate.

A further experiment relates to NMDA receptors. The following applies: 0.5-10 mM.

With `NC(CCCP(=O)(O)O)C(=O)O` (stereo not shown) [APV, 2-amino-5-phosphonovalerate], in the experiment on retinal ganglion cells (200 μM APV after DTT treatment), the “vulnerability of neurons despite DTT treatment” value is “could be blocked”. For the same compound, the “death of retinal ganglion cells exposed to glutamate in the culture medium” value in the experiment with retinal ganglion cells (APV 200 μM, DTT transient exposure, 12-24 hr) is given as “prevented the death”. In the experiment on retinal ganglion cells (DTT 500 μM in the presence of DTNB 1 mM, APV cultures P<0.01), the “neuronal survival compared to baseline” value is “significantly greater than baseline”. Besides, the “NMDA-induced responses in native and reduced states” value in the experiment with NMDA receptor was “blocked NMDA-induced responses”.

With `O[C@H]1CSSC[C@@H]1O` [oxidized DTT, oxidized dithiotheritol], the “NMDA receptor-mediated neurotoxicity / neuronal cell injury” value with retinal ganglion cells is reported as “does not effect neuronal cell injury”; with retinal ganglion cells (listed as oxidized dithiotheritol (DTT)), “does not significantly affect”.

As for `N[C@@H](CCC(=O)N[C@@H](CS)C(=O)NCC(=O)O)C(=O)O` [reduced glutathione, glutathione], the “protection against toxicity mediated at NMDA receptors” value in the experiment with NMDA receptors is reported as “can protect”.
